Source: ChEMBL document CHEMBL4706485, “Development of cell-permeable peptide-based PROTACs targeting estrogen receptor α” (Eur J Med Chem, 2020)
Values belong to the molecule of their own block, whether it stands above or below them. The source made the active and inactive calls. The rule behind the calls is not given here. Square brackets hold non-standard residues; d marks the D form. Peptide text beside a SMILES is read from it. Hyp = O=C(O)[C@@H]1C[C@@H](O)CN1; Ahx = NCCCCCC(=O)O

Columns and labels:
MCF7 [1] = experiment: Cytotoxicity against human MCF7 cells assessed as reduction in cell viability at 5 to 80 uM after 48 hrs by MTT assay; format: functional, cell-based; details: dose 5-80 µM
MCF7 [2] = experiment: Cytotoxicity against human MCF7 cells assessed as reduction in cell viability after 48 hrs by MTT assay; format: functional, cell-based
A2780 = experiment: Cytotoxicity against human A2780 cells assessed as reduction in cell viability at 5 to 80 uM after 48 hrs by MTT assay; format: functional, cell-based; details: dose 5-80 µM
MDA-MB-231 = experiment: Cytotoxicity against human MDA-MB-231 cells assessed as reduction in cell viability at 5 to 80 uM after 48 hrs by MTT assay; format: functional, cell-based; details: dose 5-80 µM
HUVEC = experiment: Cytotoxicity against human HUVEC cells assessed as reduction in cell viability at 5 to 80 uM after 48 hrs by MTT assay; format: cell-based; details: dose 5-80 µM
[3] = biological target: T1, von Hippel-Lindau disease tumor suppressor/Estrogen receptor (Homo sapiens) (UniProt P03372+P40337); experiment: Protac activity at VHL/ERalpha in human MCF7 cells assessed as degradation of ERalpha protein level at 10 uM after 12 hrs by Western blot analysis; format: cell-based
T1 sequence (P03372 whole entry, looked up): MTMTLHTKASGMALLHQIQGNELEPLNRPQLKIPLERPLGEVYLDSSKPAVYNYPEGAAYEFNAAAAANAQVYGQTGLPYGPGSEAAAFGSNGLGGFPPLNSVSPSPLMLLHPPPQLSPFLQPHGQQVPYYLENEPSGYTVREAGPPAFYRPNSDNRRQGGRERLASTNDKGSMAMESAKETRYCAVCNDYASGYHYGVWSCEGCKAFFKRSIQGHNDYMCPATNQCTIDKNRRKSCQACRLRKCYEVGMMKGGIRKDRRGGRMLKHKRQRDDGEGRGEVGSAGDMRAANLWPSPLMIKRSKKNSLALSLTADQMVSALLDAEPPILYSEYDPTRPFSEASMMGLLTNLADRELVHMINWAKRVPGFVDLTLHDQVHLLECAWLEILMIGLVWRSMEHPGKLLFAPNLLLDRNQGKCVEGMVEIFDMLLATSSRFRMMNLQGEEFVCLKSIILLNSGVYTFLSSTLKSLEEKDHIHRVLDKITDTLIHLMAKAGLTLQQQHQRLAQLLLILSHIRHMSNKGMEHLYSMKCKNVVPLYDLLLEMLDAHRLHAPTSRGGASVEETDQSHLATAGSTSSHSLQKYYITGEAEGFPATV
T1 sequence (P40337 whole entry, looked up): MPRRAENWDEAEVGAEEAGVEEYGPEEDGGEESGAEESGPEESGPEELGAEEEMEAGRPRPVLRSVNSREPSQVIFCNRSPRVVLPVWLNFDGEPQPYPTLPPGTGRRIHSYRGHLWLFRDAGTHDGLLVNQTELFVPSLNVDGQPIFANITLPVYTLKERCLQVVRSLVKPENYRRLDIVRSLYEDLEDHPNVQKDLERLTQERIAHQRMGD

[4] = biological target: T1, von Hippel-Lindau disease tumor suppressor/Estrogen receptor (Homo sapiens); experiment: Protac activity at VHL/ERalpha in human A2780 cells assessed as degradation of ERalpha protein level at 10 uM after 12 hrs by Western blot analysis; format: cell-based
[5] = Drug uptake in human MCF7 cells at 10 uM FITC labelled form of compound after 12 hrs by flow cytometric analysis; format: ADME, cell-based; details: mcf7, 12 h
[6] = Drug uptake in human MCF7 cells FITC labelled form of compound by flow cytometric analysis; format: ADME, cell-based; details: dose lower 2 µM, time lower 2 hrs, dose upper 16 µM, time upper 24 hrs
[7] = Drug uptake in human MCF7 cells at 10 uM FITC labelled form of compound after 3 hrs by Hoechst 33258 staining based fluorescence microscopic analysis; format: ADME, cell-based; details: mcf7, 3 h
MCF7 [8] = experiment: Induction of apoptosis in human MCF7 cells assessed as increase in late apoptotic cells after 12 hrs by annexinV-FITC/PI staining based flow cytometric analysis; format: functional, cell-based; details: dose 5-20 µM
MCF7 [9] = experiment: Induction of apoptosis in human MCF7 cells assessed as increase in necrotic cells after 12 hrs by annexinV-FITC/PI staining based flow cytometric analysis; format: functional, cell-based; details: dose 5-20 µM
MCF7 [10] = experiment: Induction of apoptosis in human MCF7 cells assessed as viable cells at 10 uM after 12 hrs by annexinV-FITC/PI staining based flow cytometric analysis (reference value: 95.4 to 97.6%); format: functional; details: read-out: Activity
MCF7 [11] = experiment: Induction of apoptosis in human MCF7 cells assessed as early apoptotic cells at 10 uM after 12 hrs by annexinV-FITC/PI staining based flow cytometric analysis (reference value: 0.8 to 1.6%); format: functional
MCF7 [12] = experiment: Induction of apoptosis in human MCF7 cells assessed as late apoptotic cells at 10 uM after 12 hrs by annexinV-FITC/PI staining based flow cytometric analysis (reference value: 0.9 to 1.9%); format: functional
MCF7 [13] = experiment: Induction of apoptosis in human MCF7 cells assessed as necrotic cells at 10 uM after 12 hrs by annexinV-FITC/PI staining based flow cytometric analysis (reference value: 0.7 to 1.1%); format: functional
MCF7 [14] = experiment: Induction of apoptosis in human MCF7 cells assessed as viable cells at 5 uM after 12 hrs by annexinV-FITC/PI staining based flow cytometric analysis (reference value: 95.4 to 97.6%); format: functional; details: read-out: Activity
MCF7 [15] = experiment: Induction of apoptosis in human MCF7 cells assessed as early apoptotic cells at 5 uM after 12 hrs by annexinV-FITC/PI staining based flow cytometric analysis (reference value: 0.8 to 1.6%); format: functional
MCF7 [16] = experiment: Induction of apoptosis in human MCF7 cells assessed as late apoptotic cells at 5 uM after 12 hrs by annexinV-FITC/PI staining based flow cytometric analysis (reference value: 0.9 to 1.9%); format: functional
MCF7 [17] = experiment: Induction of apoptosis in human MCF7 cells assessed as necrotic cells at 5 uM after 12 hrs by annexinV-FITC/PI staining based flow cytometric analysis (reference value: 0.7 to 1.1%); format: functional
MCF7 [18] = experiment: Induction of apoptosis in human MCF7 cells assessed as viable cells at 20 uM after 12 hrs by annexinV-FITC/PI staining based flow cytometric analysis (reference value: 95.4 to 97.6%); format: functional; details: read-out: Activity
MCF7 [19] = experiment: Induction of apoptosis in human MCF7 cells assessed as early apoptotic cells at 20 uM after 12 hrs by annexinV-FITC/PI staining based flow cytometric analysis (reference value: 0.8 to 1.6%); format: functional
MCF7 [20] = experiment: Induction of apoptosis in human MCF7 cells assessed as late apoptotic cells at 20 uM after 12 hrs by annexinV-FITC/PI staining based flow cytometric analysis (reference value: 0.9 to 1.9%); format: functional
MCF7 [21] = experiment: Induction of apoptosis in human MCF7 cells assessed as necrotic cells at 20 uM after 12 hrs by annexinV-FITC/PI staining based flow cytometric analysis (reference value: 0.7 to 1.1%); format: functional
[22] = biological target: T1, von Hippel-Lindau disease tumor suppressor/Estrogen receptor (Homo sapiens); experiment: Protac activity at VHL/ERalpha in human MCF7 cells assessed as increase in ubiquitinated-ERalpha at 10 uM after 6 hrs in presence of MG-132 by Western blot analysis; format: cell-based
[23] = biological target: von Hippel-Lindau disease tumor suppressor/Progesterone receptor (Homo sapiens) (UniProt P06401+P40337); experiment: Protac activity at VHL/PR in human MCF7 cells assessed as degradation of PR protein level at 10 uM after 12 hrs by Western blot analysis; format: cell-based
von Hippel-Lindau disease tumor suppressor/Progesterone receptor (Homo sapiens), sequence (P06401 whole entry, looked up): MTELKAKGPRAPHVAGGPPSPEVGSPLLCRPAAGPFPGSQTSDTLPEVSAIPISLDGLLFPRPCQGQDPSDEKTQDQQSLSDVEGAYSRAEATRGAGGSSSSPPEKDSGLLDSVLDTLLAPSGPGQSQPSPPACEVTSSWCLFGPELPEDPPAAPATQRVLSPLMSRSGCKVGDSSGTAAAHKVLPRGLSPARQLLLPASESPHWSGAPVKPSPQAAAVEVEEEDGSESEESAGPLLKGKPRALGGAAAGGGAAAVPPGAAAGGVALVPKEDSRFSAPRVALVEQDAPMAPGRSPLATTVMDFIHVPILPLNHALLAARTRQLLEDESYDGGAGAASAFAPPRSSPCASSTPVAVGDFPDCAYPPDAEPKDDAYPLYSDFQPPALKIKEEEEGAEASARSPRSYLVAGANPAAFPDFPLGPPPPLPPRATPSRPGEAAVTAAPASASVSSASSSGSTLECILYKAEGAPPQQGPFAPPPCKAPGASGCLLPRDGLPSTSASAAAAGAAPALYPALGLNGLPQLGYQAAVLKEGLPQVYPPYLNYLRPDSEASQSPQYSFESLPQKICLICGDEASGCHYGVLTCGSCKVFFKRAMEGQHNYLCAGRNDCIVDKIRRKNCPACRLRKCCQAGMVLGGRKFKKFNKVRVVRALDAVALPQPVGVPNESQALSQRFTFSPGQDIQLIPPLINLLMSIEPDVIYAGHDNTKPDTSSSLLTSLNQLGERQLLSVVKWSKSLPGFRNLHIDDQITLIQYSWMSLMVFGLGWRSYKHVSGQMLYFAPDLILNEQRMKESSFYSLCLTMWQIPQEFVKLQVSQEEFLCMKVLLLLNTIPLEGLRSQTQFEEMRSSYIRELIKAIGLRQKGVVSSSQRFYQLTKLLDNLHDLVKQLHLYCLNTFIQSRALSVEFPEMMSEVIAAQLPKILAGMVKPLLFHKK
von Hippel-Lindau disease tumor suppressor/Progesterone receptor (Homo sapiens), sequence (P40337 whole entry, looked up): as the sequence (P40337 whole entry, looked up) above

[24] = biological target: von Hippel-Lindau disease tumor suppressor/Vitamin D3 receptor (Homo sapiens) (UniProt P11473+P40337); experiment: Protac activity at VHL/VDR in human MCF7 cells assessed as degradation of VDR protein level at 10 uM after 12 hrs by Western blot analysis; format: cell-based
von Hippel-Lindau disease tumor suppressor/Vitamin D3 receptor (Homo sapiens), sequence (P11473 whole entry, looked up): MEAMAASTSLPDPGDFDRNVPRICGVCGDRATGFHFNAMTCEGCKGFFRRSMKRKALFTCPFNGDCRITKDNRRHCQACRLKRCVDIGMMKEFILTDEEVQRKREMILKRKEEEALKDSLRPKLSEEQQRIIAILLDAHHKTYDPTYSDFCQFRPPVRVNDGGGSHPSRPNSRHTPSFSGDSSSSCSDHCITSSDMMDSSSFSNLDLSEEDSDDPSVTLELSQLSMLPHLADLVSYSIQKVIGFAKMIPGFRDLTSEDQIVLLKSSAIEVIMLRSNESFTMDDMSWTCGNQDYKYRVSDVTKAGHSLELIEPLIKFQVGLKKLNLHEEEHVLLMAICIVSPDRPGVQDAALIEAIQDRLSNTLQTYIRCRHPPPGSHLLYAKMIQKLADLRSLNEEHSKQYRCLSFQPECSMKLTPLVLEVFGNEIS
von Hippel-Lindau disease tumor suppressor/Vitamin D3 receptor (Homo sapiens), sequence (P40337 whole entry, looked up): as the sequence (P40337 whole entry, looked up) above

4T1 = experiment: Antitumour activity against mouse 4T1 cells implanted in BALB/c mouse assessed as inhibition in tumor growth at 10 umol/kg administered peri-tumor injection for 21 days relative to control; format: functional; details: 4T1, 504 h, time 21 day, read-out: TGI
[25] = Toxicity in BALB/c mouse implanted with mouse 4T1 cells assessed as change in body weight at 10 umol/kg administered peri-tumor injection for 21 days; details: in vivo, other, 504 h, dose 10 µmol/kg, time 21 day
MCF7 [26] = experiment: Cytotoxicity against human MCF7 cells assessed as reduction in cell viability at 20 uM after 48 hrs by MTT assay; format: functional, cell-based

SMILES: CC[C@H](C)[C@H](NC(=O)[C@H](Cc1ccc(O)cc1)NC(=O)[C@@H]1C[C@@H](O)CN1C(=O)[C@H](C)NC(=O)[C@H](CC(C)C)NC(=O)CCCCCNC(=O)[C@H](CCC(N)=O)NC(=O)C(CC(C)(C)C)NC(=O)C(CC(C)(C)C)NC(=O)[C@H](CCCNC(=N)N)NC(=O)[C@@H]1CNC(=O)C(N[C@@H](CCCNC(=N)N)C(N)=O)CC(=O)N[C@@H]([C@@H](C)CC)C(=O)NC(CC(C)(C)C)C(=O)N1)C(N)=O (some centres undefined)
- Activity (MCF7 [1]): Active
- Activity (MCF7 [2]): Dose-dependent effect
- IC50 (MCF7 [2]; MCF7, 48 h): 9.7 µM
- Activity (A2780): Active
- Activity (MDA-MB-231): Active
- Activity (HUVEC): Non-Toxic
- Activity [3]: Active
- Activity [4]: Active
- Drug uptake [5]: Active
- Drug uptake [6]: Dose-dependent effect and Tde
- Drug uptake [7]: Active
- Activity (MCF7 [8]): Dose-dependent effect
- Activity (MCF7 [9]): Dose-dependent effect
- viability at 10 µM (MCF7 [10]): 59.5%
- Activity (MCF7 [11]): 0.7%
- Activity (MCF7 [12]): 13.6%
- Activity (MCF7 [13]): 26.2%
- viability at 5 µM (MCF7 [14]): 87.2%
- Activity (MCF7 [15]): 1.3%
- Activity (MCF7 [16]): 6%
- Activity (MCF7 [17]): 5.5%
- viability at 20 µM (MCF7 [18]): 28.8%
- Activity (MCF7 [19]): 0.4%
- Activity (MCF7 [20]): 26.2%
- Activity (MCF7 [21]): 44.6%
- Activity [22]: Active
- Activity [23]: inactive
- Activity [24]: inactive
- inhibition in vivo at 10 µmol/kg (4T1): 67%
- Activity [25]: Non-Toxic

SMILES: CC[C@H](C)[C@H](NC(=O)[C@H](Cc1ccc(O)cc1)NC(=O)[C@@H]1C[C@@H](O)CN1C(=O)[C@H](C)NC(=O)[C@H](CC(C)C)NC(=O)CCCCCNC(=O)[C@H](CCC(N)=O)NC(=O)[C@H](CC(C)C)NC(=O)C(CC(C)(C)C)NC(=O)[C@H](CCCNC(=N)N)NC(=O)[C@@H]1CNC(=O)C(N[C@@H](CCCNC(=N)N)C(N)=O)CC(=O)N[C@@H]([C@@H](C)CC)C(=O)N[C@@H](CC(C)C)C(=O)N1)C(N)=O (some centres undefined)
- Activity (MCF7 [1]): Active
- Activity [3]: Active
- Drug uptake [5]: Active
- viability at 10 µM (MCF7 [10]): 78.5%
- Activity (MCF7 [11]): 0.9%
- Activity (MCF7 [12]): 7.9%
- Activity (MCF7 [13]): 12.7%

SMILES: CC/C(=C(\c1ccccc1)c1ccc(OCCN(C)C)cc1)c1ccccc1 [TAMOXIFEN]
- Activity (MCF7 [1]): Active
- inhibition in vivo at 10 µmol/kg (4T1): 36%

SMILES: CC[C@H](C)[C@H](NC(=O)[C@H](Cc1ccc(O)cc1)NC(=O)[C@@H]1C[C@@H](O)CN1C(=O)[C@H](C)NC(=O)[C@H](CC(C)C)NC(=O)CCCCCNC(=O)[C@H](CCC(N)=O)NC(=O)[C@H](CC(C)C)NC(=O)[C@H](CC(C)C)NC(=O)[C@H](CCCNC(=N)N)NC(=O)[C@H](Cc1c[nH]cn1)NC(=O)[C@H](CC(C)C)NC(=O)[C@@H](NC(=O)[C@H](CCCCN)NC(=O)[C@@H](N)Cc1c[nH]cn1)[C@@H](C)CC)C(N)=O (H-HKILHRLLQ[Ahx]LA[Hyp]YI-NH2)
- Activity (MCF7 [26]): Active
- Activity [3]: Active
- Drug uptake [5]: Active
- viability at 10 µM (MCF7 [10]): 93.4%
- Activity (MCF7 [11]): 0.9%
- Activity (MCF7 [12]): 2.7%
- Activity (MCF7 [13]): 2.9%

SMILES: CC[C@H](C)[C@H](NC(=O)[C@H](Cc1ccc(O)cc1)NC(=O)[C@@H]1C[C@@H](O)CN1C(=O)[C@H](C)NC(=O)[C@H](CC(C)C)NC(=O)CCCCCNC(=O)[C@H](CCC(N)=O)NC(=O)[C@H](CC(C)C)NC(=O)[C@H](CC(C)C)NC(=O)[C@H](CCCNC(=N)N)NC(=O)[C@@H]1CNC(=O)C(N[C@@H](CCCNC(=N)N)C(N)=O)CC(=O)N[C@@H]([C@@H](C)CC)C(=O)N[C@@H](CC(C)C)C(=O)N1)C(N)=O (some centres undefined)
- Activity (MCF7 [1]): Active
- Activity [3]: Active
- Drug uptake [5]: Active
- viability at 10 µM (MCF7 [10]): 85%
- Activity (MCF7 [11]): 1.3%
- Activity (MCF7 [12]): 5.8%
- Activity (MCF7 [13]): 8%
- inhibition in vivo at 10 µmol/kg (4T1): 52%
- Activity [25]: Non-Toxic

More lines, main results first:

- Activity [3]: Active
- Drug uptake [5]: Active
SMILES: CC[C@H](C)[C@H](NC(=O)[C@H](Cc1ccc(O)cc1)NC(=O)[C@@H]1C[C@@H](O)CN1C(=O)[C@H](C)NC(=O)[C@H](CC(C)C)NC(=O)CCCCCNC(=O)[C@H](CCC(N)=O)NC(=O)C(CC(C)(C)C)NC(=O)[C@H](CC(C)C)NC(=O)[C@H](CCCNC(=N)N)NC(=O)[C@@H]1CNC(=O)C(N[C@@H](CCCNC(=N)N)C(N)=O)CC(=O)N[C@@H]([C@@H](C)CC)C(=O)N[C@@H](CC(C)C)C(=O)N1)C(N)=O (some centres undefined)
- Activity (MCF7 [1]): Active
- viability at 10 µM (MCF7 [10]): 76.7%
- Activity (MCF7 [11]): 0.4%
- Activity (MCF7 [12]): 7.7%
- Activity (MCF7 [13]): 15.2%

- Activity [3]: Active
- Drug uptake [5]: Active
SMILES: CC[C@H](C)[C@H](NC(=O)[C@H](Cc1ccc(O)cc1)NC(=O)[C@@H]1C[C@@H](O)CN1C(=O)[C@H](C)NC(=O)[C@H](CC(C)C)NC(=O)CCCCCNC(=O)[C@H](CCC(N)=O)NC(=O)[C@H](CC(C)C)NC(=O)[C@H](CC(C)C)NC(=O)[C@H](CCCNC(=N)N)NC(=O)[C@@H]1CNC(=O)C(N[C@@H](CCCNC(=N)N)C(N)=O)CC(=O)N[C@@H]([C@@H](C)CC)C(=O)NC(CC(C)(C)C)C(=O)N1)C(N)=O (some centres undefined)
- Activity (MCF7 [1]): Active
- viability at 10 µM (MCF7 [10]): 80.2%
- Activity (MCF7 [11]): 0.7%
- Activity (MCF7 [12]): 7.1%
- Activity (MCF7 [13]): 11.9%
